Measured values taken from publication PMC10058949, “Effect of N-Terminal Peptide Modifications on In Vitro and In Vivo Properties of ^177Lu-Labeled Peptide Analogs Targeting CCK2R” (Pharmaceutics, 2023).
Where two headings read alike, the source gives them in different places. Non-standard residues stand in square brackets, D forms with d. Residues, ends and D or L forms follow the SMILES beside them. *: point of attachment. DOTA = O=C(O)CN1CCN(CC(=O)O)CCN(CC(=O)*)CCN(CC(=O)O)CC1; 1Nal = N[C@@H](Cc1cccc2ccccc12)C(=O)O; NMeNle = CCCC[C@H](NC)C(=O)O

What was measured:
[1] = molecular target: T1, CCK2R (Homo sapiens, UniProt P32239); assay: Competition assay against [125I][3-iodo-Tyr12,Leu15]gastrin-I on A431-CCK2R cells; type: binding
T1 construct: expressed in transfected cells; host or cells: A431 human epidermoid carcinoma cells (A431-CCK2R, from Dr. Luigi Aloj)
T1 sequence (P32239 1-447): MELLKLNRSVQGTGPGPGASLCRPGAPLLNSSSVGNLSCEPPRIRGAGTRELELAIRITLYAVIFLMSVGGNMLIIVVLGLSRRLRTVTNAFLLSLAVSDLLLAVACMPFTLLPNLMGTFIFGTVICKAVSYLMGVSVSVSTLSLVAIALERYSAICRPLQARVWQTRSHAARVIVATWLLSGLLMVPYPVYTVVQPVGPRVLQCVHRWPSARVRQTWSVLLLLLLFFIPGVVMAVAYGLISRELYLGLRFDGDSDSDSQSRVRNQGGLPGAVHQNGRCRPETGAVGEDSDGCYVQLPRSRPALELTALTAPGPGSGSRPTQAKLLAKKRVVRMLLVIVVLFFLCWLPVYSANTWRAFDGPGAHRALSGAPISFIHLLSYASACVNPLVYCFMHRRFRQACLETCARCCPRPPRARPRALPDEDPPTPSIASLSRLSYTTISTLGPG
Procedure: Binding experiments were performed using 96-well filter plates (MultiScreenHTS-FB, Merck Group, Darmstadt, Germany) washed with 10 mM TRIS/139 mM NaCl pH 7.4 (2 × 250 µL). For the experiment, 0.4 × 10^6 A431-CCK2R cells in 100 µL binding buffer (20 mM HEPES buffer with pH 7.4 and 10 mM MgCl2, 14 µM bacitracin, and 0.5% BSA) were added to each well. Fifty µL of [^125I][3-iodo-Tyr^12,Leu^15]gastrin-I (~25,000 cpm) and 50 µL of different dilutions of the peptide conjugates (reaching final concentrations of 0.0003–1000 nM) were added and the cells were incubated in triplicates for 1 h at room temperature. […] Incubation was interrupted by filtration of the medium and rapid rinsing with ice-cold 10 mM TRIS/139 mM NaCl pH 7.4 (2 × 200 µL). The filters were collected and counted in a γ-counter (2480 Wizard2 3”, PerkinElmer Life Sciences and Analytical Sciences, formerly Wallac Oy, Turku, Finland). Half-maximal inhibitory concentration (IC50) values were calculated following nonlinear regression with Origin software (Microcal Origin 6.1, Northampton, MA, USA).

[2] = Biodistribution blocking experiment with 1000-fold excess of non-radiolabeled peptide; type: in vivo, mice; details: female, BALB/c nude, mouse, in vivo, iv, total radioactivity, blocking
Procedure: (§1) Then, after 7–11 days, when visible tumor xenografts were formed, groups of 5 mice were injected intravenously via a lateral tail vein with ~0.5 MBq of radiolabeled peptide, corresponding to 20 pmol of peptide, in a total volume of ~150 µL in PBS/0.5% BSA. Using an additional mouse per group, a blocking study was performed by co-injecting a 1000-fold molar excess of the respective peptide analog (20 nmol) together with the radiolabeled peptide. For quantification, a 1:1, 1:10 and 1:50 standard was prepared using aliquots of the injection solution mixed with PBS/0.5% BSA. Mice were euthanized by cervical dislocation 4 h after injection. Subsequently, a blood sample was collected, and different tissues were dissected. All samples, as well as the rest of the body were weighed, and the activity measured in the γ-counter together with the standard. Results were expressed as percentage of injected activity per gram of tissue (%IA/g).

[3] = test system: human serum proteins; assay: Protein binding in human serum by Sephadex G-50 size-exclusion chromatography; type: in vitro ADME
Procedure: (§2) The stability studies with the ^177Lu-labeled peptide analogs were carried out at a concentration of 0.5 nmol peptide/mL in fresh human serum (n = 2) for up to 24 h. A mixture of 0.05 nmol/mL of the radiolabeled peptides in PBS and octanol (1/1, v/v) was used to evaluate the octanol/PBS distribution coefficient (logD7.4; n = 8). To determine the protein binding in human serum by Sephadex G-50 size-exclusion chromatography (GE Healthcare Illustra, Little Chalfont, UK), a 25 µL serum sample was used for different time points after incubation. All steps were performed according to previously published protocols.

[4] = Biodistribution 4 h p.i. in A431-CCK2R/A431-mock xenografted BALB/c nude mice; type: in vivo; details: female, BALB/c nude, mouse, in vivo, iv, 20 pmol, total radioactivity
Procedure: as §1

[5] = Octanol/PBS distribution coefficient (logD7.4); type: physicochemical; details: pH 7.4
Procedure: as §2

**Q.** With `CCCC[C@@H](C(=O)N[C@@H](CC(=O)O)C(=O)N[C@@H](Cc1cccc2ccccc12)C(N)=O)N(C)C(=O)[C@H](Cc1c[nH]c2ccccc12)NC(=O)CNC(=O)[C@H](Cc1ccc(O)cc1)NC(=O)[C@H](C)NC(=O)[C@@H](CCC(=O)O)NC(=O)[C@@H](CCC(=O)O)NC(=O)[C@@H](CCC(=O)O)NC(=O)[C@@H](CCC(=O)O)NC(=O)[C@@H](CCC(=O)O)NC(=O)[C@@H](CCC(=O)O)NC(=O)CN1CCN(CC(=O)O)CCN(CC(=O)O)CCN(CC(=O)O)CC1` [Peptide 1, DOTA-(DGlu)6-Ala-Tyr-Gly-Trp-(N-Me)Nle-Asp-1Nal-NH2] ({DOTA}-[dE][dE][dE][dE][dE][dE]AYGW[NMeNle]D[1Nal]-NH2) as the compound, how does the IC50 [1] read?
**A.** Its IC50 is 0.18 ± 0.02 nM.

**Q.** For `CCCC[C@@H](C(=O)N[C@@H](CC(=O)O)C(=O)N[C@@H](Cc1cccc2ccccc12)C(N)=O)N(C)C(=O)[C@H](Cc1c[nH]c2ccccc12)NC(=O)CCNC(=O)CC(O)CNC(=O)CC(O)CNC(=O)CN1CCN(CC(=O)O)CCN(CC(=O)O)CCN(CC(=O)O)CC1` (stereo partly drawn) [Peptide 2, DOTA-(GABOB)2-βAla-Trp-(N-Me)Nle-Asp-1Nal-NH2], which IC50 ([1]; A431-CCK2R cells, 1 h room temperature, n = 3, read-out: IC50) is on record?
**A.** The IC50 was 0.24 nM.

**Q.** Which results are given for `CCCC[C@@H](C(=O)N[C@@H](CC(=O)O)C(=O)N[C@@H](Cc1cccc2ccccc12)C(N)=O)N(C)C(=O)[C@H](Cc1c[nH]c2ccccc12)NC(=O)CNC(=O)[C@H](Cc1ccc(O)cc1)NC(=O)[C@H](C)NC(=O)[C@@H](CCC(=O)O)NC(=O)[C@@H](CCC(=O)O)NC(=O)[C@@H](CCC(=O)O)NC(=O)[C@@H](CCC(=O)O)NC(=O)[C@@H](CCC(=O)O)NC(=O)[C@@H](CCC(=O)O)NC(=O)CN1CCN(CC(=O)O)CCN(CC(=O)O)CCN(CC(=O)O)CC1` [[^177Lu]Lu-1, metal not drawn] ({DOTA}-[dE][dE][dE][dE][dE][dE]AYGW[NMeNle]D[1Nal]-NH2)?
**A.** tissue uptake at 4 h ([2]; uptake in A431-CCK2R xenograft): 0.45 %ID/g; tissue uptake at 4 h ([2]; uptake in A431-mock xenograft): 0.12 %ID/g; tissue uptake at 4 h ([2]; uptake in blood): 0.03 %ID/g; tissue uptake at 4 h ([2]; uptake in femur): 0.18 %ID/g; tissue uptake at 4 h ([2]; uptake in heart): 0.05 %ID/g; tissue uptake at 4 h ([2]; uptake in lung): 0.06 %ID/g; tissue uptake at 4 h ([2]; uptake in pancreas): 0.05 %ID/g; tissue uptake at 4 h ([2]; uptake in stomach): 0.06 %ID/g; change in binding to human serum proteins compared to [177Lu]Lu-DOTA-MGS5 [3]: increased by a factor of two; tissue uptake at 4 h ([4]; uptake in A431-CCK2R xenografts): 22.2 ± 6.23 %ID/g; tissue uptake at 4 h ([4]; uptake in A431-mock xenografts): 0.14 ± 0.04 %ID/g; tissue uptake at 4 h ([4]; uptake in blood): 0.02 %ID/g; tissue uptake at 4 h ([4]; uptake in femur): 0.21 ± 0.05 %ID/g; tissue uptake at 4 h ([4]; uptake in heart): 0.06 ± 0.01 %ID/g; tissue uptake at 4 h ([4]; uptake in intestine): 0.42 ± 0.07 %ID/g; tissue uptake at 4 h ([4]; uptake in kidneys): 21.6 ± 2.11 %ID/g; tissue uptake at 4 h ([4]; uptake in liver): 2.48 ± 0.39 %ID/g; tissue uptake at 4 h ([4]; uptake in lung): 0.12 ± 0.04 %ID/g; tissue uptake at 4 h ([4]; uptake in muscle): 0.04 ± 0.02 %ID/g; tissue uptake at 4 h ([4]; uptake in pancreas): 1.25 ± 0.27 %ID/g; tissue uptake at 4 h ([4]; uptake in spleen): 1.86 ± 0.62 %ID/g; tissue uptake at 4 h ([4]; uptake in stomach): 4.77 ± 1.1 %ID/g; logD [5]: -4.18 ± 0.24
